Experimental data as given in PubChem BioAssay (NCI).
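These data come from cells grown in 96-well plates and exposed to compound for 48 hours at five concentrations. Abbreviation: GI50, concentration required for 50% inhibition of growth. The concentration for full growth arrest is given as TGI.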

Assays:
Assay in all cases: NCI anticancer screen, dose series, 48 h
SNB-19 CNS = tested on: SNB-19 CNS
SK-MEL-2 melanoma = tested on: SK-MEL-2 melanoma
MCF7 breast = tested on: MCF7 breast
UACC-62 melanoma = tested on: UACC-62 melanoma
HCC-2998 colon = tested on: HCC-2998 colon
TK-10 renal = tested on: TK-10 renal
MOLT-4 leukemia = tested on: MOLT-4 leukemia
MALME-3M melanoma = tested on: MALME-3M melanoma
HS 578T breast = tested on: HS 578T breast
SK-MEL-28 melanoma = tested on: SK-MEL-28 melanoma
KM12 colon = tested on: KM12 colon
UO-31 renal = tested on: UO-31 renal
SF-268 CNS = tested on: SF-268 CNS

| SMILES | TGI (SNB-19 CNS) | TGI (SK-MEL-2 melanoma) | TGI (MCF7 breast) | TGI (UACC-62 melanoma) | TGI (HCC-2998 colon) | TGI (TK-10 renal) | TGI (MOLT-4 leukemia) | TGI (MALME-3M melanoma) | TGI (HS 578T breast) | TGI (SK-MEL-28 melanoma) | TGI (KM12 colon) | TGI (UO-31 renal) | TGI (SF-268 CNS) | GI50 (SNB-19 CNS) | GI50 (SK-MEL-2 melanoma) | GI50 (UACC-62 melanoma) | GI50 (TK-10 renal) | GI50 (MOLT-4 leukemia) | GI50 (HS 578T breast) | GI50 (UO-31 renal) |
| --- | --- | --- | --- | --- | --- | --- | --- | --- | --- | --- | --- | --- | --- | --- | --- | --- | --- | --- | --- | --- |
| CCOC(=O)C1=C(c2ccccc2)C12N(Cc1ccccc1)C(=O)C2(c1ccccc1)c1ccccc1 (stereo not drawn) | > 100 µM | 80 µM | > 100 µM | > 100 µM | 90.3 µM | > 100 µM | > 100 µM | > 100 µM | > 100 µM | > 100 µM | > 100 µM | > 100 µM | > 100 µM |  |  |  |  |  |  |  |
| O=C1c2cc3c(cc2CC1Cc1ccc2c(c1)CCC2)CCC3 (stereo not drawn) | > 100 µM | > 100 µM | > 100 µM | > 100 µM | > 100 µM | > 100 µM | > 100 µM | > 100 µM | > 100 µM | > 100 µM | > 100 µM | > 100 µM | > 100 µM |  |  |  |  |  |  |  |
| COc1cc(-c2nc3cc(Cl)c(Cl)cc3[nH]2)ccc1OCC(=O)N=Nc1c(O)[nH]c2ccc(Cl)cc12 | 3.33 µM | 2.93 µM |  | 2.54 µM |  | > 100 µM | 1.59 µM |  | 3.71 µM |  |  | > 100 µM |  | 0.447 µM | 1.28 µM | 1.2 µM | 2.53 µM | 0.321 µM | 1.04 µM | > 100 µM |
| N#Cc1ccc(C2Oc3ccc(Cl)cc3C=C2[N+](=O)[O-])cc1 (stereo not drawn) | 6.58 µM | 4.09 µM | 3.14 µM | 3.09 µM | 3.21 µM | 3.38 µM | 4.24 µM | 4.79 µM | 47.6 µM | 3.31 µM | 3.81 µM | 2.99 µM | 4.16 µM |  |  |  |  |  |  |  |
